# Measured values as given in US20050209157A1, “Short bioactive peptides and methods for their use” (priority 2001, published 2005).
# “Also recorded” adds a separate entry of the source. Where two headings read alike, the source gives them in different places. No end group written: not given here.
# How the values were obtained:
# [1] = system: Candida albicans ATCC 10231; assay: Antimicrobial assay I, modified protocol (tryptic soy broth), MFC; details: minimum fungicidal concentration, Table 4
# [2] = system: Escherichia coli ATCC 25922; assay: Antimicrobial assay I, modified protocol (tryptic soy broth), MBC; details: minimum bactericidal concentration, Table 4
# Description: The preparation of all media, stock solutions, and dilutions took place in a laminar flow hood to prevent contamination. Bacterial cells were freshly grown on antibiotic medium 2 agar slants (pH 7.0 at 25° C.). Bacteria were suspended and diluted in antibiotic medium 3 to about 10^4 cfu/ml and used as the inoculum. Sample solutions (100 μl/well) were added to plates according to the plate layout. Inoculum (100 μl/well) was added to achieve a final concentration of 5×10^3 cfu/ml. Negative controls received 100 μl saline and 100 μl growth medium. Positive controls received 100 μl saline and 100 μl inoculum. Bacterial plates were incubated at 37° C. for 24 hours.
# However, the data for Table 4 were obtained with a modified protocol wherein the medium was tryptic soy broth, inocolum strength was approximately 10^4 CFU per ml, and values determined were minimum bactericidal concentrations (MBC) or minimum fungicidal concentrations (MFC).
# MBC or MFC values are in μg/mL. E. coli is Escherichia coli ATCC accession number 25922; P. aerug is Pseudomonas aeruginosa ATCC accession number 27853, S. aur. is Stapholococcus aureus ATCC accession number 25923; Candida is Candida albicans ATCC accession number 10231.
# [3] = system: fungal; assay: Presently preferred antifungal peptides, selected from the MIC/MBC data; assay type: cell-based; details: X = preferred
# Description: The peptide's “length” is the number of amino acid residues in the sequence.
# [4] = system: Pseudomonas aeruginosa ATCC 27853; assay: Antimicrobial assay I, modified protocol (tryptic soy broth), MBC; details: minimum bactericidal concentration, Table 4
# [5] = in vitro; assay type: cell-based, human; details: human, human red blood cells
# [6] = in vitro; details: human, WI38 normal lung fibroblast cells
# [7] = system: Stapholococcus aureus ATCC 25923; assay: Antimicrobial assay I, modified protocol (tryptic soy broth), MBC; details: minimum bactericidal concentration, Table 4
# [8] = system: SW480; assay: Anti-cancer assay, MTT, LD50; assay type: cell-based; details: SW480 colon adenocarcinoma line, 24 hours with peptide
# Description: (§1) Numbers are LD50 values (μg/mL).
# [9] = system: MCF7; assay: Anti-cancer assay, MTT, LD50; assay type: cell-based; details: MCF7 breast adenocarcinoma line, MTT, 24 hours with peptide
# Description: as §1
# [10] = system: BMKC; assay: Anti-cancer assay, MTT, LD50; assay type: cell-based; details: BMKC cloned melanoma line, 24 hours with peptide
# Description: as §1
# [11] = system: PC3; assay: Anti-cancer assay, MTT, LD50; assay type: cell-based; details: 24 hours with peptide, prostate adenocarcinoma
# Description: as §1
# [12] = system: H1299; assay: Anti-cancer assay, MTT, LD50; assay type: cell-based; details: 24 hours with peptide, lung large cell carcinoma
# Description: as §1
# [13] = system: HeLaS3; assay: Anti-cancer assay, MTT, LD50; assay type: cell-based; details: 24 hours with peptide, cervical carcinoma
# Description: as §1
# [14] = system: Pseudomonas aeruginosa ATCC 9027; assay: Antimicrobial assay I, MIC by OD measurement; assay type: cell-based; details: for paerug9027 (MIC): 37° C. for 24 hours, absorbance 620 nm
# [15] = system: Staphylococcus aureus ATCC 6538; assay: Antimicrobial assay I, MIC by OD measurement; assay type: cell-based; details: 37° C. for 24 hours, absorbance 620 nm
# [16] = system: yeast (Saccharomyces cerevisiae); assay: Antimicrobial assay I, yeast assay in RPMI 1640; assay type: cell-based; details: RPMI 1640 media
# [17] = system: WI38
# [18] = system: human red blood cells (RBC); assay: in vitro; assay type: cell-based; details: hemolytic assay, concentration at 50% hemolysis, 1 hour at 37° C.
# [19] = system: hairless rat skin burn wound; assay: In vivo wound healing, TCA chemically induced skin burn wound; details: for Epidermal thickening / Fibroblast cells in test area / Inflammatory response area / Leukocyte cells in test area / Wound closure: rat model, TCA burn treated by peptide; for Wound closure: 26 days
# Description: The hairless rat was chosen as a suitable test model. Female hairless rats of 100 to 150 grams weight and 8 to 12 weeks age were used in the study.
# As an alternative, 70% trichloroacetic (TCA) dissolved in 70% ethanol was employed to induce the dermal erosion patches. […] As the chemical burn agent, the TCA treatment inflicted on the rats far less trauma and mortality than occurred with the Phenol model.
# The experimental Protocol procedure steps were as follows: • 1. The animal was anesthetized (40 mg/kg Phenobarbital). • 2. Color photographs of the animal's back (with six separate peels) were taken before each treatment and daily thereafter. • 3. Rat skin surface was prepared by wiping with 70% ethanol. Filter paper discs (1.1 cm diameter) were soaked in 70% TCA/ethanol. • 4. The discs were placed on the back of the hairless rat for 30 minutes [6 disks providing for 2 control (no peptide treatment) disks and 4 disks for peels to receive peptide treatment.] • 5. After a 30 minute burn the discs were removed. Twenty four hours later, different peptide solutions (1500 ppm in saline) were applied to four peels, and saline was applied to the two control peels. • 6. Peptide solutions (and saline for the controls) were applied to the six wounds with a soft brush each day thereafter. • 7. It took approximately one month for the wounds to heal (complete skin closure with stabilized epidermis), after which the animal was sacrificed. • 8. The treated skin was harvested, section stained with trichrome, and mounted on slides.
# The percentage of wound closure for each peel (six sites) was measured each day until the animal was sacrificed. The percentage closure was determined by measuring on the animal photographs the area of the remaining scab relative to the area of the initial scar after the burn. These measurements were made by digitizing and analyzing the peels using the Sigma Plot ProScan 4 program.
# This provided a measure of the post-TCA burn treatment of the inflammatory response in each peel site.
# The extent of epidermal thickening (hyperkeratosis) at each site was also determined by measurement with the Sigma Plot program applied to the stained section slides of the various wound areas and the normal untreated skin (control) surrounding the peels. At magnifications of 100× to 320×, the microphotographs of the color slides provided a powerful tool for such quantification of the extent of hyperkeratosis evident in each peel.
# Treatment of the section slides with selective stains produced identifiable evidence of the presence of both leukocyte and fibroblast cells in the wound areas. This was also quantified by the Sigma Plot program.
# The above described animal model and protocols were employed in the testing of approximately 20 of the peptides listed in Table 48 (and other peptides for comparison) as preferred FLAK peptides for wound healing.
# [20] = system: cancer cell lines; assay: Anti-cancer assays, MTT, summary over the cancer cell lines; assay type: cell-based; details: X = preferred
# [21] = system: P. aeruginosa H374; assay type: cell-based, Pseudomonas aeruginosa; details: for FIC Index: 0.5 or less = synergy
# Method in brief: (§2)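 Synergy against efflux-mutant strains: two-fold dilutions of nalidixic acid or chloramphenicol tested with peptide held at ¼ of its MIC.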
# [22] = system: P. aeruginosa H774; assay type: cell-based, Pseudomonas aeruginosa; details: P. aeruginosa H744; nalidixic acid + peptide at ¼ MIC; 0.5 or less = synergy
# Method in brief: as §2
# [23] = system: P. aeruginosa; assay type: cell-based, Pseudomonas aeruginosa; details: P. aeruginosa H744; MIC of nalidixic acid with peptide at ¼ MIC
# Method in brief: as §2
# [24] = pH 7, Table 26, valine substitution, read-out: Hemolysis RBC LD50
# [25] = WI-38 LD50, Table 26, valine substitution
# [26] = MTT, 24 hours with peptide, normal fibroblast line
compound,measurement,setting,value
FALALKALKKL-NH2 [compound 165],MFC Candida A.10231,[1],10 µg/mL
same,MBC E. coli A.25922,[2],10 µg/mL
same,Anti-fungal (preferred peptide),[3],X (Preferred antifungal peptides can be selected as having MIC or MBC values of less than or equal to about 25 μg/ml)
same,MBC P. aerug A.27853,[4],25 µg/mL
same,HC50 at 1 h,[5]; [24],350 µg/mL
same,CC50 at 24 h,[6]; [25],850 µg/mL
same,MBC S. aur A.25923,[7],25 µg/mL
"MPKEKVFLKIEKMGRNIRN-NH2 [P107, reference compound]",LD50 SW480,[8],> (> indicates greater than 1000)
same,LD50 MCF7,[9],> (> indicates greater than 1000)
same,LD50 BMKC,[10],> (> indicates greater than 1000)
same,PC3 LD50,[11],> (> indicates greater than 1000)
same,H1299 LD50,[12],> (> indicates greater than 1000)
same,HeLaS3 LD50,[13],> (> indicates greater than 1000)
same,paerug9027 (MIC),[14],> (> indicates greater than 200 μg/mL)
same,staph6538 (MIC),[15],> (> indicates greater than 200 μg/mL)
same,yeast (MIC or MFC),[16],> (> indicates greater than 200 μg/mL)
same,WI38 LD50,[17]; [26],> (> indicates greater than 1000)
same,LD50 WI38,"[17]; WI38 normal lung fibroblast line, MTT, 24 hours with peptide",> (> indicates greater than 1000)
same,LD50,[18],> (> indicates greater than 1000)
same,rate of wound closure,"[19]; hairless rat, full wound closure at 26 days",small advantage in rate of wound closure over the other peptides and no peptide
same,ability to limit post-TCA burn inflammatory responses,"[19]; hairless rat, peptide solutions 1500 ppm in saline, topical daily",superior in this respect
same,hyperkeratosis (epidermal thickening),"[19]; hairless rat, peptide solutions 1500 ppm in saline, topical daily, listed as SEQ ID NO:71",lowest evidence of hyperkeratosis (epidermal thickening); also recorded: substantially no hyperkeratosis as compared to the TCA burn untreated control
same,Epidermal thickening,[19],33 % of control (TCA only)
same,Fibroblast cells in test area,[19],420 % of normal skin
same,Inflammatory response area,[19],0 % of healed scar
same,Leukocyte cells in test area,[19],400 % of normal skin
same,Wound closure,[19],100 % of initial wound
CC[C@H](C)[C@H](N)C(=O)N[C@@H](CC(C)C)C(=O)N1CCC[C@H]1C(=O)N[C@@H](Cc1c[nH]c2ccccc12)C(=O)N[C@@H](CCCCN)C(=O)N[C@@H](Cc1c[nH]c2ccccc12)C(=O)N1CCC[C@H]1C(=O)N[C@@H](Cc1c[nH]c2ccccc12)C(=O)N[C@@H](Cc1c[nH]c2ccccc12)C(=O)N1CCC[C@H]1C(=O)N[C@@H](Cc1c[nH]c2ccccc12)C(=O)N[C@@H](CCCNC(=N)N)C(=O)N[C@@H](CCCNC(=N)N)C(=O)O [compound 91],Anti-cancer (preferred peptide),[20],X (Preferred anticancer peptides can be selected as having LD50 values of less than or equal to about 25 μg/ml)
"FAKLLAKALKKAL-NH2 [P102, FAKLLAKALKKAL-NH2]",LD50 SW480,[8],57 µg/mL
same,LD50 MCF7,[9],60 µg/mL
same,LD50 BMKC,[10],60 µg/mL
same,PC3 LD50,[11],66 µg/mL
same,H1299 LD50,[12],27 µg/mL
same,HeLaS3 LD50,[13],43 µg/mL
same,paerug9027 (MIC),[14],10 µg/mL
same,staph6538 (MIC),[15],5 µg/mL
same,MIC Cm-comb.,[21]; MIC of chloramphenicol with peptide at ¼ MIC,16 µg/mL
same,MIC Nal-comb.,[21]; MIC of nalidixic acid with peptide at ¼ MIC,5000 µg/mL
same,FIC Index,[21]; chloramphenicol + peptide at ¼ MIC,1.25
same,FIC Index,"[21]; nalidixic acid + peptide at ¼ MIC, FIC=0.25+MIC comb/MIC alone",1.25
same,FIC Index,[22],1.25
same,MIC Nal-comb.,[23],624 µg/mL
same,yeast (MIC or MFC),[16],50 µg/mL
same,WI38 LD50,[17]; [26],73 µg/mL
same,HC50 at 1 h,"[5]; pH 7, hemolytic assay, concentration at 50% hemolysis, 1 hour at 37° C., read-out: LD50",500 µg/mL
same,Epidermal thickening,[19],50 % of control (TCA only)
same,Fibroblast cells in test area,[19],220 % of normal skin
same,Inflammatory response area,[19],27 % of healed scar
same,Leukocyte cells in test area,[19],370 % of normal skin
same,Wound closure,[19],96.7 % of initial wound
same,CC50 at 24 h,"[6]; LD50 WI38, WI38 normal lung fibroblast line, MTT, 24 hours with peptide",73 µg/mL
KWKLFKKALKKLKKALKKAL-NH2 [compound 104],Anti-cancer (preferred peptide),[20],X (Preferred anticancer peptides can be selected as having LD50 values of less than or equal to about 25 μg/ml)
FKLAFKLAKKAFL-NH2 [compound 122],MFC Candida A.10231,[1],15 µg/mL
same,MBC E. coli A.25922,[2],30 µg/mL
same,Anti-fungal (preferred peptide),[3],X (Preferred antifungal peptides can be selected as having MIC or MBC values of less than or equal to about 25 μg/ml)
same,MBC P. aerug A.27853,[4],30 µg/mL
same,MBC S. aur A.25923,[7],25 µg/mL
FALALKALKKAL-NH2 [compound 144],MFC Candida A.10231,[1],25 µg/mL
same,MBC E. coli A.25922,[2],10 µg/mL
same,Anti-fungal (preferred peptide),[3],X (Preferred antifungal peptides can be selected as having MIC or MBC values of less than or equal to about 25 μg/ml)
same,MBC P. aerug A.27853,[4],25 µg/mL
same,MBC S. aur A.25923,[7],25 µg/mL
VAKLLAKLAKKVL-NH2 [compound 154],MFC Candida A.10231,[1],25 µg/mL
same,MBC E. coli A.25922,[2],50 µg/mL
same,Anti-fungal (preferred peptide),[3],X (Preferred antifungal peptides can be selected as having MIC or MBC values of less than or equal to about 25 μg/ml)
same,P. aerug (MIC),[14],100 µg/mL
same,MBC P. aerug A.27853,[4],100 µg/mL
same,WI38 LD50,[17]; Table 27,110 µg/mL
same,HC50 at 1 h,[5]; [24],870 µg/mL
same,HC50 at 1 h,"[5]; pH 7, Table 27, read-out: Hemolysis (LD50)",450 µg/mL
same,CC50 at 24 h,[6]; [25],110 µg/mL
same,MBC S. aur A.25923,[7],>250 µg/mL
FALALKALKKLKKALKKAL-NH2 [compound 27],MFC Candida A.10231,[1],>50 µg/mL
same,MBC E. coli A.25922,[2],10 µg/mL
same,Anti-fungal (preferred peptide),[3],X (Preferred antifungal peptides can be selected as having MIC or MBC values of less than or equal to about 25 μg/ml)
same,MBC P. aerug A.27853,[4],8 µg/mL
same,MBC S. aur A.25923,[7],8 µg/mL
FALKALKKAL-NH2 [compound 170],MFC Candida A.10231,[1],25 µg/mL
same,MBC E. coli A.25922,[2],25 µg/mL
same,Anti-fungal (preferred peptide),[3],X (Preferred antifungal peptides can be selected as having MIC or MBC values of less than or equal to about 25 μg/ml)
same,MBC P. aerug A.27853,[4],>250 µg/mL
same,MBC S. aur A.25923,[7],150 µg/mL
